Test results from patent publication US20260035384A1, “COMPOUND CONTAINING CYCLOHEXYL” (CHIA TAI TIANQING PHARMACEUTICAL GROUP CO., LTD., priority 2022, published 2026).

Columns and labels:
AR in VCaP cells = molecular target: T1, AR in VCaP cells (Homo sapiens, UniProt P10275); experiment: Assay on degradation activity for AR in VCaP cells (HTRF human androgen receptor detection kit); format: cell-based; conditions: 24 h incubation
T1 construct: Assay on Degradation Activity for AR in VCaP Cells; endogenous in cells; host or cells: VCaP cells
T1 sequence (P10275 1-920): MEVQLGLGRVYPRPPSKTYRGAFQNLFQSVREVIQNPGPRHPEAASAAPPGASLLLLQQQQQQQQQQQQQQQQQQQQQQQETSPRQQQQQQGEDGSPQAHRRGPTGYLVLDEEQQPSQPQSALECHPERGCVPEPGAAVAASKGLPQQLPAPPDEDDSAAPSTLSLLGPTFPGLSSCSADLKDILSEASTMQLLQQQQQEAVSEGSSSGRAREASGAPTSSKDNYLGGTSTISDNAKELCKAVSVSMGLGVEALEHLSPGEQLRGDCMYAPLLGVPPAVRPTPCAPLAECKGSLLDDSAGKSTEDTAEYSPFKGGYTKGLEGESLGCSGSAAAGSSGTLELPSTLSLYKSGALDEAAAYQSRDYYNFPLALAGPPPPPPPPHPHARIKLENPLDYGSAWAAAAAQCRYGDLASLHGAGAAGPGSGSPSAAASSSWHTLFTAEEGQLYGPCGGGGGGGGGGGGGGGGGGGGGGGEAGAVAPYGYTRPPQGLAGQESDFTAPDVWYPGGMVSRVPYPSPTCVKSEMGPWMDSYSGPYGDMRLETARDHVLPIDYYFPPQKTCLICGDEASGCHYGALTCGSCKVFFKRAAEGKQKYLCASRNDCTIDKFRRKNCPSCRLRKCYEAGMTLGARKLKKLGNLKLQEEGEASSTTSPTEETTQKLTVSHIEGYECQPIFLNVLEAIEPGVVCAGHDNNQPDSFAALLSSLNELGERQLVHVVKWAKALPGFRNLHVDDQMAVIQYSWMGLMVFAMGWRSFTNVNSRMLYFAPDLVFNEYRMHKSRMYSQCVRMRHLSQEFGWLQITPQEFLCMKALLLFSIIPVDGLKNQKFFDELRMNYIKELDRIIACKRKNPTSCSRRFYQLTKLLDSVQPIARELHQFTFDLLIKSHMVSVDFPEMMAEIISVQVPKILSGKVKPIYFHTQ
Procedure, shortened: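 VCaP cells seeded overnight in 2% CSS-FBS phenol red-free DMEM, then treated 24 h with compound at 1000 nM–0.977 nM final, in duplicate. Lysates probed with AR Eu cryptate/d2 antibody HTRF (2 h, 25° C., 665/620 nm); DC50 and Dmax from four-parameter dose-response fits.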

[1] = In vitro stability in liver microsome; format: in vitro ADME; conditions: human liver microsome 0.5 mg/mL, NADPH, 37° C.
VCaP cells = experiment: Assay on inhibitory activity for VCaP cell proliferation (CCK-8); format: cell-based; conditions: Homo sapiens, 168 h incubation
Procedure, shortened: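 VCaP cells seeded at 1×10^5 cells/mL in phenol red-free DMEM with 5% charcoal-stripped FBS, treated in duplicate at 10000–0.61 nM final. After 168 h incubation, viability was read with CCK-8.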

For `N#Cc1ccc(O[C@H]2CC[C@H](NC(=O)c3ccc(C4CCN(C5CN(c6cc7onc(C8CCC(=O)NC8=O)c7c7ccccc67)C5)CC4)nn3)CC2)cc1Cl` (stereo partly drawn) [Compound 48], the DC50 (AR in VCaP cells) was at most 1 nM, the “Human liver microsome Residuals at 60 min (%)” value [1] was over 85% and the IC50 (VCaP cells) was under 100 nM.
